Measured values taken from US20240051997A1, “SAP AND PEPTIDOMIMETIC COMPOSITIONS FOR REDUCING SYMPTOMS OF INFLAMMATION” (Arch Biosurgery, Inc., priority 2018, published 2024).
“Also recorded” adds a separate entry of the source.

How the values were obtained:
[1] = system: Human THP-1 cells; test: Cytokine release by THP-1 cells stimulated with RADA-16 or LPS (PROTEOME PROFILER Array); assay type: cell-based
Description: (§1) The anti-inflammatory effect of a SAP was examined using an in vitro assay to assess cytokine release by human THP-1 cells in the presence of SAP. Measurement of THP-1 cell activation in response to antigen was assessed by cytokine release.
Human THP-1 cells in culture media (1×10^6 cells in 1 ml of Culture medium) were exposed to the self-assembling peptide RADARADARADARADA (“RADA-16”; SEQ ID NO: 1), at a concentration of 1 μg/well, 10 μg/well, or 100 μg/well.
Human THP-1 cells in the absence of RADA-16 were used as a control to assess the baseline level of cytokine production in “resting” non-actived THP-1 cells.
(§2) To assess cytokine release upon THP-1 cell activation, lipopolysaccharides (LPS) from Salmonella typhimurium (catalog no. L-7261; Sigma-Aldrich, St. Louis, MO) were added to THP-1 cells, at a concentration of 1 μg/ml.
(§3) The release of cytokines in response to exposure of THP-1 cells to RADA-16 (SEQ ID NO: 1) or LPS was measured using the PROTEOME PROFILER™ Array kit, commercially available as a test strip kit for detection of cytokines in solution (R&D Systems, Inc., Catalog Number ARY005). The assay was carried out according to the manufacturer's guide lines.

[2] = system: liver inflammation, ED-1 reactivity (macrophage activation); test: Rat liver injury model (punch biopsy), ED-1 immunohistochemistry; assay type: in vivo, Sprague-Dawley rat; settings: 4 mm punch biopsy, all time-points observed, compared to saline or acid controls
Description: The anti-inflammatory effects of EARA-16 (SEQ ID NO: 89) and RADA-16 (SEQ ID NO: 1) SAPs were examined using a liver injury model. Levels of inflammation were assayed through immuno-histochemical ED-1 reactivity (ED-1 serves as a marker of macrophage activation).
Pigs or adult Sprague-Dawley rats were anesthetized and their intraperitoneal cavities were opened under aseptic conditions. For each animal, the liver was exposed and then subjected to an 8 mm (pig) or 4 mm (rat) punch biopsy.
The punch sites were then cauterized or treated with acid (for pH control), saline, or RADA-16 (SEQ ID NO: 1) or EARA-16 (SEQ ID NO: 89) solutions. The animals were allowed to survive for up to 14 days. The animals were then sacrificed and their livers were harvested and sectioned. An ED-1 antibody was used to determine the level of inflammation and activation of macrophages in the liver via immunohistochemistry (IHC).

[3] = system: Human THP-1 cells; test: Cytokine release by THP-1 cells exposed to LPS/RADA-16 mixture; assay type: cell-based; settings: LPS 1 μg/ml added to 1, 10 or 100 μg/well peptide, then to THP-1 cells
Description: as §1, §2
To determine the effects of exposing THP-1 cells to RADA-16 (SEQ ID NO: 1) upon cytokine release, LPS was added to each of the 1 μg/well, 10 μg/well, or 100 μg/well RADA-16 samples, and then added to THP-1 cells.
as §3

Sequence: RADARADARADARADA [RADA-16, self-assembling peptide]
- C5a (Complement Component 5a) release ([1]; 1 mcg (1 μg/well) RADA-16): 0
- CD40 Ligand (CD154) release ([1]; 1 mcg (1 μg/well) RADA-16): 0
- G-CSF (CSF −, CSF-3) release ([1]; 1 mcg (1 μg/well) RADA-16): 0
- GM-CSF (CSF |, CSF-2) release ([1]; 1 mcg (1 μg/well) RADA-16): 0
- GRO | (CXCL1) release ([1]; 1 mcg (1 μg/well) RADA-16): 0
- I-309 (CCL1) release ([1]; 1 mcg (1 μg/well) RADA-16): 0
- I-TAC (CXCL11) release ([1]; 1 mcg (1 μg/well) RADA-16): 0
- IFN-• (Type II IFN) release ([1]; 1 mcg (1 μg/well) RADA-16): 0
- IL-1 alpha (IL-1F1) release ([1]; 1 mcg (1 μg/well) RADA-16): 0
- IL-1 beta (IL-1F2) release ([1]; 1 mcg (1 μg/well) RADA-16): 0
- IL-1ra (IL-1F3) release ([1]; 1 mcg (1 μg/well) RADA-16): 22.59
- IL-2 release ([1]; 1 mcg (1 μg/well) RADA-16): 0
- IL-4 release ([1]; 1 mcg (1 μg/well) RADA-16): 0
- IL-5 release ([1]; 1 mcg (1 μg/well) RADA-16): 0
- IL-6 release ([1]; 1 mcg (1 μg/well) RADA-16): 0
- IL-8 (CXCL8) release ([1]; 1 mcg (1 μg/well) RADA-16): 0
- IL-10 release ([1]; 1 mcg (1 μg/well) RADA-16): 0
- IL-12 p 70 release ([1]; 1 mcg (1 μg/well) RADA-16): 0
- IL-13 release ([1]; 1 mcg (1 μg/well) RADA-16): 0
- IL-16 (LCF) release ([1]; 1 mcg (1 μg/well) RADA-16): 0
- IL-17E release ([1]; 1 mcg (1 μg/well) RADA-16): 0
- IL-17 release ([1]; 1 mcg (1 μg/well) RADA-16): 0
- IL-23 release ([1]; 1 mcg (1 μg/well) RADA-16): 0
- IL-27 release ([1]; 1 mcg (1 μg/well) RADA-16): 0
- IL-32 release ([1]; 1 mcg (1 μg/well) RADA-16): 0
- IP-10 (CXCL10) release ([1]; 1 mcg (1 μg/well) RADA-16): 0
- MCP-1 (CCL2) release ([1]; 1 mcg (1 μg/well) RADA-16): 0
- MIP-1 | (CCL3) release ([1]; 1 mcg (1 μg/well) RADA-16): 0
- MIP-1− (CCL4) release ([1]; 1 mcg (1 μg/well) RADA-16): 0
- SDF-1 (CXCL12) release ([1]; 1 mcg (1 μg/well) RADA-16): 0
- TNF- | (TNFSF2) release ([1]; 1 mcg (1 μg/well) RADA-16): 0
- sICAM-1 (CD54) release ([1]; 1 mcg (1 μg/well) RADA-16): 0
- sTREM-1 release ([1]; 1 mcg (1 μg/well) RADA-16): 0
- C5a (Complement Component 5a) release ([1]; 10 mcg (10 μg/well) RADA-16): 0
- CD40 Ligand (CD154) release ([1]; 10 mcg (10 μg/well) RADA-16): 0
- G-CSF (CSF −, CSF-3) release ([1]; 10 mcg (10 μg/well) RADA-16): 0
- GM-CSF (CSF |, CSF-2) release ([1]; 10 mcg (10 μg/well) RADA-16): 0
- GRO | (CXCL1) release ([1]; 10 mcg (10 μg/well) RADA-16): 0
- I-309 (CCL1) release ([1]; 10 mcg (10 μg/well) RADA-16): 0
- I-TAC (CXCL11) release ([1]; 10 mcg (10 μg/well) RADA-16): 0
- IFN-• (Type II IFN) release ([1]; 10 mcg (10 μg/well) RADA-16): 0
- IL-1 alpha (IL-1F1) release ([1]; 10 mcg (10 μg/well) RADA-16): 0
- IL-1 beta (IL-1F2) release ([1]; 10 mcg (10 μg/well) RADA-16): 0
- IL-1ra (IL-1F3) release ([1]; 10 mcg (10 μg/well) RADA-16): 0
- IL-2 release ([1]; 10 mcg (10 μg/well) RADA-16): 0
- IL-4 release ([1]; 10 mcg (10 μg/well) RADA-16): 0
- IL-5 release ([1]; 10 mcg (10 μg/well) RADA-16): 0
- IL-6 release ([1]; 10 mcg (10 μg/well) RADA-16): 0
- IL-8 (CXCL8) release ([1]; 10 mcg (10 μg/well) RADA-16): 0
- IL-10 release ([1]; 10 mcg (10 μg/well) RADA-16): 0
- IL-12 p 70 release ([1]; 10 mcg (10 μg/well) RADA-16): 0
- IL-13 release ([1]; 10 mcg (10 μg/well) RADA-16): 0
- IL-16 (LCF) release ([1]; 10 mcg (10 μg/well) RADA-16): 0
- IL-17E release ([1]; 10 mcg (10 μg/well) RADA-16): 0
- IL-17 release ([1]; 10 mcg (10 μg/well) RADA-16): 0
- IL-23 release ([1]; 10 mcg (10 μg/well) RADA-16): 0
- IL-27 release ([1]; 10 mcg (10 μg/well) RADA-16): 0
- IL-32 release ([1]; 10 mcg (10 μg/well) RADA-16): 0
- IP-10 (CXCL10) release ([1]; 10 mcg (10 μg/well) RADA-16): 0
- MCP-1 (CCL2) release ([1]; 10 mcg (10 μg/well) RADA-16): 0
- MIP-1 | (CCL3) release ([1]; 10 mcg (10 μg/well) RADA-16): 0
- MIP-1− (CCL4) release ([1]; 10 mcg (10 μg/well) RADA-16): 0
- SDF-1 (CXCL12) release ([1]; 10 mcg (10 μg/well) RADA-16): 0
- TNF- | (TNFSF2) release ([1]; 10 mcg (10 μg/well) RADA-16): 0
- sICAM-1 (CD54) release ([1]; 10 mcg (10 μg/well) RADA-16): 0
- sTREM-1 release ([1]; 10 mcg (10 μg/well) RADA-16): 0
- C5a (Complement Component 5a) release ([1]; 100 mcg (100 μg/well) RADA-16): 0
- CD40 Ligand (CD154) release ([1]; 100 mcg (100 μg/well) RADA-16): 0
- G-CSF (CSF −, CSF-3) release ([1]; 100 mcg (100 μg/well) RADA-16): 0
- GM-CSF (CSF |, CSF-2) release ([1]; 100 mcg (100 μg/well) RADA-16): 0
- GRO | (CXCL1) release ([1]; 100 mcg (100 μg/well) RADA-16): 0
- I-309 (CCL1) release ([1]; 100 mcg (100 μg/well) RADA-16): 0
- I-TAC (CXCL11) release ([1]; 100 mcg (100 μg/well) RADA-16): 0
- IFN-• (Type II IFN) release ([1]; 100 mcg (100 μg/well) RADA-16): 0
- IL-1 alpha (IL-1F1) release ([1]; 100 mcg (100 μg/well) RADA-16): 0
- IL-1 beta (IL-1F2) release ([1]; 100 mcg (100 μg/well) RADA-16): 0
- IL-1ra (IL-1F3) release ([1]; 100 mcg (100 μg/well) RADA-16): 0
- IL-2 release ([1]; 100 mcg (100 μg/well) RADA-16): 0
- IL-4 release ([1]; 100 mcg (100 μg/well) RADA-16): 0
- IL-5 release ([1]; 100 mcg (100 μg/well) RADA-16): 0
- IL-6 release ([1]; 100 mcg (100 μg/well) RADA-16): 0
- IL-8 (CXCL8) release ([1]; 100 mcg (100 μg/well) RADA-16): 0
- IL-10 release ([1]; 100 mcg (100 μg/well) RADA-16): 0
- IL-12 p 70 release ([1]; 100 mcg (100 μg/well) RADA-16): 0
- IL-13 release ([1]; 100 mcg (100 μg/well) RADA-16): 0
- IL-16 (LCF) release ([1]; 100 mcg (100 μg/well) RADA-16): 0
- IL-17E release ([1]; 100 mcg (100 μg/well) RADA-16): 0
- IL-17 release ([1]; 100 mcg (100 μg/well) RADA-16): 0
- IL-23 release ([1]; 100 mcg (100 μg/well) RADA-16): 0
- IL-27 release ([1]; 100 mcg (100 μg/well) RADA-16): 0
- IL-32 release ([1]; 100 mcg (100 μg/well) RADA-16): 0
- IP-10 (CXCL10) release ([1]; 100 mcg (100 μg/well) RADA-16): 0
- MCP-1 (CCL2) release ([1]; 100 mcg (100 μg/well) RADA-16): 0
- MIP-1 | (CCL3) release ([1]; 100 mcg (100 μg/well) RADA-16): 0
- MIP-1− (CCL4) release ([1]; 100 mcg (100 μg/well) RADA-16): 0
- SDF-1 (CXCL12) release ([1]; 100 mcg (100 μg/well) RADA-16): 0
- TNF- | (TNFSF2) release ([1]; 100 mcg (100 μg/well) RADA-16): 0
- sICAM-1 (CD54) release ([1]; 100 mcg (100 μg/well) RADA-16): 0
- sTREM-1 release ([1]; 100 mcg (100 μg/well) RADA-16): 0
- induction of cytokine release relative to baseline ([1]; resting THP-1 cells, 1, 10 or 100 μg/well, no LPS): did not induce cytokine release beyond baseline levels
- levels of inflammation in liver (ED-1 IHC) [2]: markedly reduced the levels of inflammation
- cytokine release upon LPS exposure (C5a, TNFSF2, IL-6, IL-8/CXCL8, MCP-1/CCL2, MIP-1/CCL3, MIP-1/CCL4, IL-1/IL1-F2) [3]: reduced levels of cytokine release; also recorded: prevented or reduced the release of cytokines
